Test results: patent US9796686B2, “Antibacterial quinazoline-4(3H)-one derivatives” (priority 2014, dated 2017)
In brackets after ≈: the same amount, converted by molar mass.

Experiments:
Test in all cases: Bacterial growth minimal inhibitory concentration, microdilution in cation-adjusted Mueller-Hinton Broth (CLSI M7-A7)
Format in all cases: cell-based
[1] = system: E. coli ATCC25922; conditions: quinolone-sensitive strain; for MIC: Escherichia coli, ATCC25922, read-out: MIC for E. coli ATCC25922
Procedure: (§1) Minimal Inhibitory Concentrations (MICs; mg/L) were determined in cation-adjusted Mueller-Hinton Broth by a microdilution method following the description given in “Methods for Dilution Antimicrobial Susceptibility Tests for Bacteria that Grow Aerobically”, Approved standard, 7th ed., Clinical and Laboratory Standards Institute (CLSI) Document M7-A7, Wayne, Pa., U.S.A. (2006).
(§2) All Example compounds were tested against several Gram-positive and Gram-negative bacteria. […] K. pneumoniae A-651 is a multiply-resistant strain (in particular quinolone-resistant), while E. coli ATCC25922 and P. aeruginosa ATCC27853 are quinolone-sensitive strains.

[2] = system: P. aeruginosa ATCC27853; conditions: quinolone-sensitive strain; for MIC: Pseudomonas aeruginosa, ATCC27853, read-out: MIC for P. aeruginosa ATCC27853
Procedure: as §1, §2

[3] = system: K. pneumoniae A-651; conditions: multiply-resistant strain (in particular quinolone-resistant); for MIC: Klebsiella pneumoniae, A651, read-out: MIC for K. Pneumoniae A-651
Procedure: as §1, §2

Row | SMILES | MIC [1] [µg/mL] | MIC [2] [µg/mL] | MIC [3] [µg/mL] | MIC for E. coli ATCC25922 [1] [µg/mL] | MIC for P. aeruginosa ATCC27853 [2] [µg/mL] | MIC for K. Pneumoniae A-651 [3] [µg/mL]
1 | C[C@@](CCn1cnc2cc(C#CC#C[C@@]3(F)C[C@@H]3CO)ccc2c1=O)(C(=O)NO)S(C)(=O)=O (relative stereo) [Example 30, (R)-4-(7-(((1R*,2R*)-1-fluoro-2-(hydroxymethyl)cyclopropyl)buta-1,3-diyn-1-yl)-4-oxoquinazolin-3(4H)-yl)-N-hydroxy-2-methyl-2-(methylsulfonyl)butanamide] | 0.25 (≈ 0.526 µM) | 1 (≈ 2.1 µM) | 0.5 (≈ 1.05 µM) |  |  | 
2 | CC(CCn1cnc2cc(C#Cc3ccc(CN4CCOCC4)cc3)ccc2c1=O)(C(=O)NO)S(C)(=O)=O.O=CO (racemic) [RE12, (RS)-N-hydroxy-2-methyl-2-(methylsulfonyl)-4-(7-((4-(morpholinomethyl)phenyl)ethynyl)-4-oxoquinazolin-3(4H)-yl)butanamide formate] | 0.5 | 16 | 0.5 |  |  | 
3 | C[C@@](CCn1cnc2cc(C#CC#CC3(C(O)CO)CC3)ccc2c1=O)(C(=O)NO)S(C)(=O)=O (mixture of isomers) [Example 19, (2R)-4-(7-((1-((RS)-1,2-dihydroxyethyl)cyclopropyl)buta-1,3-diyn-1-yl)-4-oxoquinazolin-3(4H)-yl)-N-hydroxy-2-methyl-2-(methylsulfonyl)butanamide] | 8 | 8 | 32 |  |  | 
4 | CN(C)c1ccc(-c2ccc3c(=O)n(CCC(C)(C(=O)NO)S(C)(=O)=O)cnc3c2)cc1 (racemic) [RE6, (RS)-4-(7-(4-(dimethylamino)phenyl)-4-oxoquinazolin-3(4H)-yl)-N-hydroxy-2-methyl-2-(methylsulfonyl)butanamide] | 0.125 (≈ 0.273 µM) | 16 (≈ 34.9 µM) | 0.125 (≈ 0.273 µM) |  |  | 
5 | CC(CCn1cnc2cc(C#Cc3ccc(C4(O)COC4)cc3)ccc2c1=O)(C(=O)NO)S(C)(=O)=O (racemic) [RE11, (RS)-N-hydroxy-4-(7-((4-(3-hydroxyoxetan-3-yl)phenyl)ethynyl)-4-oxoquinazolin-3(4H)-yl)-2-methyl-2-(methylsulfonyl)butanamide] | 1 (≈ 1.95 µM) | 8 (≈ 15.6 µM) | 1 (≈ 1.95 µM) |  |  | 
6 | COc1ccc(-c2ccc3c(=O)n(CC[C@](C)(C(=O)NO)S(C)(=O)=O)cnc3c2)c(F)c1 (single isomer, unassigned) [Example 1] | ≤ 0.063 | 4 (≈ 8.63 µM) | 0.25 (≈ 0.539 µM) |  |  | 
7 | C[C@@](CCn1cnc2cc(C#CC#CC3(CO)CC3)c(F)cc2c1=O)(C(=O)NO)S(C)(=O)=O [Example 12, (R)-4-(6-fluoro-7-((1-(hydroxymethyl)cyclopropyl)buta-1,3-diyn-1-yl)-4-oxoquinazolin-3(4H)-yl)-N-hydroxy-2-methyl-2-(methylsulfonyl)butanamide] | 0.25 (≈ 0.526 µM) | 2 (≈ 4.21 µM) | 0.5 (≈ 1.05 µM) |  |  | 
8 | COc1cccc(-c2ccc3c(=O)n(CCC(C)(C(=O)NO)S(C)(=O)=O)cnc3c2)c1F (racemic) [RE4, (RS)-4-(7-(2-fluoro-3-methoxyphenyl)-4-oxoquinazolin-3(4H)-yl)-N-hydroxy-2-methyl-2-(methylsulfonyl)butanamide] | 0.125 (≈ 0.27 µM) | 8 (≈ 17.3 µM) | ≤ 0.063 |  |  | 
9 | C[C@@](CCn1cnc2cc(C#CC#CC3(N)CC3)ccc2c1=O)(C(=O)NO)S(C)(=O)=O.O=CO [Example 25, (R)-4-(7-((1-aminocyclopropyl)buta-1,3-diyn-1-yl)-4-oxoquinazolin-3(4H)-yl)-N-hydroxy-2-methyl-2-(methylsulfonyl)butanamide formate] | 0.25 | 1 | 0.5 |  |  | 
10 | C[C@@]1(CO)C[C@H]1C#CC#Cc1ccc2c(=O)n(CC[C@](C)(C(=O)NO)S(C)(=O)=O)cnc2c1 [Example 17, (R)-N-hydroxy-4-(7-(((1S,2R)-2-(hydroxymethyl)-2-methylcyclopropyl)buta-1,3-diyn-1-yl)-4-oxoquinazolin-3(4H)-yl)-2-methyl-2-(methylsulfonyl)butanamide] | ≤ 0.063 | 0.5 (≈ 1.06 µM) | 0.125 (≈ 0.265 µM) |  |  | 
11 | C[C@@](CCn1cnc2cc(C#CC#CC3CCC(NC(=O)CN)C3)c(F)cc2c1=O)(C(=O)NO)S(C)(=O)=O.Cl (stereo partly drawn) [Example 27, (R)-4-(7-((3-(2-aminoacetamido)cyclopentyl)buta-1,3-diyn-1-yl)-6-fluoro-4-oxoquinazolin-3(4H)-yl)-N-hydroxy-2-methyl-2-(methylsulfonyl)butanamide hydrochloride] | 1 | 8 | 4 |  |  | 
12 | C[C@@](CCn1cnc2cc(-c3ccccc3)ccc2c1=O)(C(=O)NO)S(C)(=O)=O (single isomer, unassigned) [Example 2] | 0.25 (≈ 0.602 µM) | 8 (≈ 19.3 µM) | ≤ 0.063 |  |  | 
13 | C[C@@](CCn1cnc2cc(C#CC#CC3(O)COC3)ccc2c1=O)(C(=O)NO)S(C)(=O)=O [Example 4, (R)-N-hydroxy-4-(7-((3-hydroxyoxetan-3-yl)buta-1,3-diyn-1-yl)-4-oxoquinazolin-3(4H)-yl)-2-methyl-2-(methylsulfonyl)butanamide] | 4 (≈ 8.71 µM) | 4 (≈ 8.71 µM) | 4 (≈ 8.71 µM) |  |  | 
14 | CN(C)CC#CC#Cc1cc2ncn(CC[C@](C)(C(=O)NO)S(C)(=O)=O)c(=O)c2cc1F.O=CO [Example 32, (R)-4-(7-(5-(dimethylamino)penta-1,3-diyn-1-yl)-6-fluoro-4-oxoquinazolin-3(4H)-yl)-N-hydroxy-2-methyl-2-(methylsulfonyl)butanamide formate] | 0.25 | 2 | 0.5 |  |  | 
15 | C[C@@](CCn1cnc2c(F)c(C#CC#C[C@H]3C[C@@H]3CO)ccc2c1=O)(C(=O)NO)S(C)(=O)=O [Example 23, (R)-4-(8-fluoro-7-(((1S,2S)-2-(hydroxymethyl)cyclopropyl)buta-1,3-diyn-1-yl)-4-oxoquinazolin-3(4H)-yl)-N-hydroxy-2-methyl-2-(methylsulfonyl)butanamide] | 0.5 (≈ 1.05 µM) | 4 (≈ 8.41 µM) | 0.5 (≈ 1.05 µM) |  |  | 
16 | C[C@@](CCn1cnc2c(F)c(C#CC#C[C@@H]3C[C@H]3CO)ccc2c1=O)(C(=O)NO)S(C)(=O)=O [Example 21, (R)-4-(8-fluoro-7-(((1R,2R)-2-(hydroxymethyl)cyclopropyl)buta-1,3-diyn-1-yl)-4-oxoquinazolin-3(4H)-yl)-N-hydroxy-2-methyl-2-(methylsulfonyl)butanamide] | 0.25 (≈ 0.526 µM) | 4 (≈ 8.41 µM) | 0.5 (≈ 1.05 µM) |  |  | 
17 | CN(C)CC(=O)OCC1(c2ccc(C#Cc3ccc4c(=O)n(CC[C@](C)(C(=O)NO)S(C)(=O)=O)cnc4c3)cc2)CC1.Cl [Example 22] |  |  |  | 0.5 | 16 | 4
18 | CC(CCn1cnc2cc(-c3ccc(OCCN4CCOCC4)cc3F)ccc2c1=O)(C(=O)NO)S(C)(=O)=O.O=CO (racemic) [RE3, (RS)-4-(7-(2-fluoro-4-(2-morpholinoethoxy)phenyl)-4-oxoquinazolin-3(4H)-yl)-N-hydroxy-2-methyl-2-(methylsulfonyl)butanamide formate] | 2 | 16 | 4 |  |  | 
19 | C[C@@](CCn1cnc2cc(C#CC#C[C@@H]3C[C@H]3[C@H](O)CO)ccc2c1=O)(C(=O)NO)S(C)(=O)=O [Example 26, (R)-4-(7-(((1R,2R)-2-((S)-1,2-dihydroxyethyl)cyclopropyl)buta-1,3-diyn-1-yl)-4-oxoquinazolin-3(4H)-yl)-N-hydroxy-2-methyl-2-(methylsulfonyl)butanamide] | 1 (≈ 2.05 µM) | 1 (≈ 2.05 µM) | 1 (≈ 2.05 µM) |  |  | 
20 | CC(CCn1cnc2cc(-c3ccc(CN4CCOCC4)cc3)ccc2c1=O)(C(=O)NO)S(C)(=O)=O.O=CO (racemic) [RE8, (RS)-N-hydroxy-2-methyl-2-(methylsulfonyl)-4-(7-(4-(morpholinomethyl)phenyl)-4-oxoquinazolin-3(4H)-yl)butanamide formate] | 1 | 16 | 2 |  |  | 
21 | C[C@@](CCn1cnc2cc(C#CC#C[C@@H]3C[C@H]3CN)c(F)cc2c1=O)(C(=O)NO)S(C)(=O)=O.Cl [Example 28, (R)-4-(7-(((1R,2R)-2-(aminomethyl)cyclopropyl)buta-1,3-diyn-1-yl)-6-fluoro-4-oxoquinazolin-3(4H)-yl)-N-hydroxy-2-methyl-2-(methylsulfonyl)butanamide hydrochloride] | 8 | 8 | 8 |  |  | 
22 | C[C@@](CCn1cnc2cc(C#CC#C[C@@H]3C[C@H]3CO)ccc2c1=O)(C(=O)NO)S(C)(=O)=O [Example 5, (R)-N-hydroxy-4-(7-(((1R,2R)-2-(hydroxymethyl)cyclopropyl)buta-1,3-diyn-1-yl)-4-oxoquinazolin-3(4H)-yl)-2-methyl-2-(methylsulfonyl)butanamide] | ≤ 0.063 | 1 (≈ 2.19 µM) | 0.25 (≈ 0.546 µM) |  |  | 
23 | C[C@@]1(C#CC#Cc2ccc3c(=O)n(CC[C@](C)(C(=O)NO)S(C)(=O)=O)cnc3c2)C[C@H]1CO [Example 20, (R)-N-hydroxy-4-(7-(((1R,2R)-2-(hydroxymethyl)-1-methylcyclopropyl)buta-1,3-diyn-1-yl)-4-oxoquinazolin-3(4H)-yl)-2-methyl-2-(methylsulfonyl)butanamide] | 0.125 (≈ 0.265 µM) | 1 (≈ 2.12 µM) | 0.5 (≈ 1.06 µM) |  |  | 
24 | CC(CCn1cnc2cc(C#Cc3ccc(CO)cc3)ccc2c1=O)(C(=O)NO)S(C)(=O)=O (racemic) [RE10, (RS)-N-hydroxy-4-(7-((4-(hydroxymethyl)phenyl)ethynyl)-4-oxoquinazolin-3(4H)-yl)-2-methyl-2-(methylsulfonyl)butanamide] | 0.25 (≈ 0.532 µM) | 16 (≈ 34.1 µM) | 1 (≈ 2.13 µM) |  |  | 
